Measurements as given in patent US9618513B2, “Compositions and methods for detecting and treating colorectal cancer” (The Regents of the University of Michigan, priority 2014, dated 2017).

Key:
[1] = tested on: ALDH1; test: ALDH activity by FACS (aldefluor fluorescence); assay type: cell-based, human; details: DLD-1, HT29 and two primary colon cancer cell lines, IL-22 24 hours
Description: (A), IL-22 is expressed in colon cancer tissues. IL-22 mRNA was detected by real-time PCR in colon cancer tissues and peripheral blood. *P<0.05 compared to blood, 20 colon cancer patients. (B-D), Endogenous IL-22 promotes colon carcinogenesis. Single cells (10^7) isolated from colon cancer tissue were mixed with anti-IL-22 antibody or control mAb, and then subcutaneously injected to NSG mice. Tumor growth (B), incidence (C), and animal survival (D) are shown. (P<0.05 for all, n=5 per group). (E-G) Recombinant IL-22 promotes colon carcinogenesis. DLD-1 colon cancer cells (10^5) were pre-incubated with IL-22 (20 ng/ml) for 1 hour, and then subcutaneously injected to NSG mice. […] ALDH activity was determined by FACS based on aldefluor fluorescence. […] Results are expressed as fold changes of ALDH expression. […] The mRNA of stem cell core gene was detected by real-time PCR (K) and proteins were detected by western blotting (L, M). […]
(A, B) IL-22 is expressed by immune cells in colon cancer tissues. Different cell populations were sorted from colon cancer tissues and IL-22 expression was measured by real time PCR. […] IL-22 was detected via ELISA. […] IL-22 was detected with ELISA (D) or intracellular staining (E). […] IL-22 mRNA was detected by real time PCR (F) and protein by ELISA (G). […] IL-22 expression was quantified with real-time PCR in the migrated and non-migrated cells. […]

[2] = tested on: H3K27me3 in the promoter of p16 and p18; test: H3K27me3 ChIP at p16 and p18 promoters; assay type: cell-based, human; details: after IL-22 stimulation
Method: A, C. Cell proliferation was analyzed using H^3 Thymidine Incorporation. B. The level of total H3K79m2 and H3K27me3 was measured by Western Blot. D. PcG proteins of EZH2, EED, SUZ12 was increased with IL-22(20 ng/ml) treatment. E. EZH2, SUZ12 and EED was detected by Western Blot after IL-22 treated for 24 h or 48 h. F. EZH2 inhibitor DZNep reduced cell proliferation. G.H. The efficiency of EZH2 and SUZ12 knock down was tested by Western Blot. I.J. Cell proliferation was analyzed using H^3 Thymidine Incorporation after knock down of EZH2 and SUZ12. K.L. Relative expression of cyclin-dependent kinase inhibitors (p16 and p18) in shEZH2, shSUZ12 and Dznep treated cells after IL-22 treatment. M. The level of H3K27me3 in the promoter of p16 and p18 was analyzed by ChIP assay.
ChIP assay was performed according to the protocol (Upstate, Millipore; htt, followed by, p://www.millip, followed by, ore.com/techpublica, followed by, tions/tech1/mcproto407). Crosslinking was performed with 1% formaldehyde or 1% paraformaldehyde for 10 min. To enhance cell lysis, we ran the lysate through a 27 g needle three times and flash froze it in −80° C. Sonication was then performed with the Misonix 4000 water bath sonication unit at 15% amplitude for 10 min. Protein/DNA complex was precipitated by specific antibodies against H3K79me2, H3K27me3 (Millipore), Stat3 (Cell Signaling) and IgG control (Millipore). […]

IL-22: recombinant IL-22 (R&D systems), cytokine interleukin-22
aldehyde dehydrogenase (ALDH1) activity [1]: increased
level of H3K27m3 in the promoter of p16 and p18 [2]: increased
